Results published in patent US5340727A, “GPIbα fragments and recombinant DNA expression vectors” (The Scripps Research Institute, priority 1990, dated 1994).
Where no end group is shown, it is not given here.

Columns and labels:
vWF-GPIb interaction [1] = biological target: T1, vWF-GPIb interaction (Homo sapiens, UniProt P04275+P07359); experiment: Ristocetin-induced binding of 125I-labeled vWF to fresh or formalin-fixed platelets; details: peptides tested individually; read-out: IC50, inhibition of binding of vWF to the GPIb of platelets by synthetic peptides
T1 construct: endogenous in cells; host or cells: fresh or formalin-fixed platelets
T1 sequence (P07359 17-652): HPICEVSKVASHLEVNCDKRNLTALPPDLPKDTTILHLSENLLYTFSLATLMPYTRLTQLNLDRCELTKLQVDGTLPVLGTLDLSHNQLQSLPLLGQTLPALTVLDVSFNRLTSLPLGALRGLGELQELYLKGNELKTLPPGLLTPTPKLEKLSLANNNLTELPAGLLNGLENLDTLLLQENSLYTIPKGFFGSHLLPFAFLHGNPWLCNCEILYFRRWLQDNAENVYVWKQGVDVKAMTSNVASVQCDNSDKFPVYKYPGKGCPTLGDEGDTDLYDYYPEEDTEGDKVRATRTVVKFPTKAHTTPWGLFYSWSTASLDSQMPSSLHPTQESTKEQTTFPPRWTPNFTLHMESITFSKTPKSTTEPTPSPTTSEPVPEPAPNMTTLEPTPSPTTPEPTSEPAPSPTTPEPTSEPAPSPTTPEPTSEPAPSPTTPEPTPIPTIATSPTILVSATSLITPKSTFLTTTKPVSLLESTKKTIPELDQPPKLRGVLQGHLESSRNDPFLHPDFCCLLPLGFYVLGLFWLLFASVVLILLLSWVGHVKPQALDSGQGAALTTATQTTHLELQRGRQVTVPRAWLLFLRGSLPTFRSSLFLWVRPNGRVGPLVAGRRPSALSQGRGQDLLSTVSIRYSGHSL
T1 sequence (P04275 764-2813 limits assumed): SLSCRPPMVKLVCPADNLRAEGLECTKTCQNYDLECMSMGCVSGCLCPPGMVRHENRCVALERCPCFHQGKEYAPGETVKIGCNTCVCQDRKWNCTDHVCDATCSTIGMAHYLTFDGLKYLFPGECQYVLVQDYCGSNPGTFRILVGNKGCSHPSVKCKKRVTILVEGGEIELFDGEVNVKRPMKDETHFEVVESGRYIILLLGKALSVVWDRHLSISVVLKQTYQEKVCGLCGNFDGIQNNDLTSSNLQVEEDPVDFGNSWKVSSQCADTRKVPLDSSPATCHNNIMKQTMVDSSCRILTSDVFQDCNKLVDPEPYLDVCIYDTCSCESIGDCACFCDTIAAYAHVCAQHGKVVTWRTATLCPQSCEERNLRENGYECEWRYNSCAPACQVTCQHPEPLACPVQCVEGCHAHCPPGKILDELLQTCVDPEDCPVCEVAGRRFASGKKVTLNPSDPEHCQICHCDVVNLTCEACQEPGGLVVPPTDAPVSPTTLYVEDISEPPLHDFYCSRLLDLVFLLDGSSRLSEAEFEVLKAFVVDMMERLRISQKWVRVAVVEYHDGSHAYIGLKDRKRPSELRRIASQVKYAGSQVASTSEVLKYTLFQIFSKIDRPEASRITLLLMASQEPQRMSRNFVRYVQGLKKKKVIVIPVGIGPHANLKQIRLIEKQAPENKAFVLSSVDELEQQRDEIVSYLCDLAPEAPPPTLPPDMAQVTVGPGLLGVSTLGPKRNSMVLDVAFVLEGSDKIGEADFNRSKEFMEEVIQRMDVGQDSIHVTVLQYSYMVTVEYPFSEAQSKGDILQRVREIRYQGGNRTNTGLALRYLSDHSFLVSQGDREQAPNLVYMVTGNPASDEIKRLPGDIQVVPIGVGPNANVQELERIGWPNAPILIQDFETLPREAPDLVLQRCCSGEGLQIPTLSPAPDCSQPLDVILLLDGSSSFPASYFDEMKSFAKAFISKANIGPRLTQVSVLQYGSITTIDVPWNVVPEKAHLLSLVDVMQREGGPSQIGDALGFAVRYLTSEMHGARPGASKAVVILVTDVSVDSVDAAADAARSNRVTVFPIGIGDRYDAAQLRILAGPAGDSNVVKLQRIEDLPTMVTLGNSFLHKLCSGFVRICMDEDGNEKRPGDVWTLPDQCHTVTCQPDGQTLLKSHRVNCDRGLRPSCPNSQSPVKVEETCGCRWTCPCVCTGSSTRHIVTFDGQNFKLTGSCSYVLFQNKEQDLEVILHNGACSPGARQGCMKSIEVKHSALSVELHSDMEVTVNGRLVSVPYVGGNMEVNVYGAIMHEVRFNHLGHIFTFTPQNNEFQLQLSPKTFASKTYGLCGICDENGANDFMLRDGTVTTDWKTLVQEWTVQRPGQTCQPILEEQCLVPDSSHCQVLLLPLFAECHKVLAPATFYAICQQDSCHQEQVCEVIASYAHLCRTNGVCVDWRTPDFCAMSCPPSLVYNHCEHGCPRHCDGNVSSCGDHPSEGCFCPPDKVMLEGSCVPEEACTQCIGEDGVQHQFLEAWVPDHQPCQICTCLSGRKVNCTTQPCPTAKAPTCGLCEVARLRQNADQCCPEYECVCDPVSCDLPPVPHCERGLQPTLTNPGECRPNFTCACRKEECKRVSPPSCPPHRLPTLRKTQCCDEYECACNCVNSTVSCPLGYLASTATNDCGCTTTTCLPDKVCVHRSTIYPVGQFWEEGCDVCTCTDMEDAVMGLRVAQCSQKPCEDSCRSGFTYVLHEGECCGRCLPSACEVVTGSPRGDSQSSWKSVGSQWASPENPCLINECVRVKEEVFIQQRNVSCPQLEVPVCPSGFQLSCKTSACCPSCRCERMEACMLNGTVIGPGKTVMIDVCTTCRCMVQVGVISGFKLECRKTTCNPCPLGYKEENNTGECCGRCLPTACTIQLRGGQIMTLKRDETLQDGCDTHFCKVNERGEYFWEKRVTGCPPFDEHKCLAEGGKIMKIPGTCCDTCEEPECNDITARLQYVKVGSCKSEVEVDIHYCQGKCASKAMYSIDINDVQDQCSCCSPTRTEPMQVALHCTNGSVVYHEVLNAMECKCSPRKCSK
Protocol: The assay system is based on the use of ^125 I-labeled vWF and fresh or formalin-fixed platelets; ristocetin was used to induce the binding of vWF to GPIb. After incubation for 30 minutes at 37° C., without stirring, separation of bound platelet from free vWF ligand was achieved by centrifugation through 20% sucrose in Tyrode buffer, followed by measurement of the bound radioactivity as described in Ruggeri et al., J. Clin. Invest., 72, 1-12 (1983). Nonspecific binding was evaluated for selected points by measuring the binding in the presence of a 40-fold excess of unlabeled vWF. Binding isotherms were evaluated by Scatchard-type analysis to determine binding parameters (including the estimate of nonspecific binding) using the computer-assisted program "Ligand" as described in Munson, Methods Enzymol., 92, 542-576 (1983).

vWF-GPIb interaction [2] = biological target: T1, vWF-GPIb interaction; experiment: Inhibition of ristocetin-induced binding of vWF to formalin-fixed platelets (Example 1); details: 125I-vWF 5 μg/ml, ristocetin 1.0 mg/ml
Protocol: To test the inhibitory activity of the peptides of the present invention, formalin-fixed platelets were used at a final concentration of 1×10^11 /l. Assayed peptides were then added at various concentrations. One third final volume of vWF-deficient plasma was then added followed by ^125 I-vWF at a final concentration of 5 μg/ml. Ristocetin was then added at a concentration of 1.0 mg/ml. After incubation for o30 minutes at room temperature, bound and free vWF ligand were separated by centrifuging 50 μl of the mixture through 300 μl of 20% sucrose at 12,000 g for 4 minutes. The platelet pellet was then separated from the rest of the mixture to determine platelet-bound radioactivity. Nonspecific binding was defined as the residual binding of ^125 I-vWF in the presence of a 50-fold excess of unlabeled vWF but in the absence of any peptides.
Percent inhibition with a given peptide was calculated by dividing the specific cpm […].

vWF-GPIb interaction [3] = biological target: T1, vWF-GPIb interaction; experiment: Inhibition of asialo-vWF binding to fresh platelets (Example 2); details: 125I-asialo-vWF 5 μg/ml
Protocol: Fresh platelets were prepared by drawing blood into a solution of 11 mM trisodium citrate and 2 mM EDTA. Platelet-rich plasma was then prepared by differential centrifugation. The platelet count was then adjusted to 1×10^11 /l. Peptides were then added to various concentrations and ^125 I-asialo-vWF was then added at a final concentration of 5 μg/ml. After incubation for 30 minutes at room temperature, bound and free vWF ligand were separated by centrifuging 50 μl of the mixture through 300 μl of 20% sucrose at 12,000 g for 4 minutes. The platelet pellet was then separated from the rest of the mixture to determine platelet-bound radioactivity. Non-specific binding was defined as the residual binding of ^125 I- asialo-vWF in the presence of a 50-fold excess of unlabeled vWF but in the absence of any peptides.
Percent inhibition with a given peptide was calculated by dividing the specific cpm obtained when various concentrations of peptide were added by the specific cpm in the absence of peptide.

GPIb-IX (Homo sapiens) = biological target: T2, GPIb-IX (Homo sapiens); experiment: Ristocetin-dependent 125I-vWF binding to formaldehyde-fixed washed platelets (Examples 5-7); details: 125I-vWF 2 μg/ml; read-out: concentration that inhibits 50% of ristocetin-induced binding of vWF
T2 construct: which utilizes washed platelets fixed with formaldehyde; endogenous in cells; host or cells: washed platelets fixed with formaldehyde
T2 sequence (P04275 764-2813 limits assumed): as above
Protocol: (§1) Percent inhibition of binding of vWF to platelets was measured using I^125 labelled vWF prepared according to the methods of Ruggeri et al. See also DeMarco et al., J. Clin. Invest., 68, 321-328 (1981). Binding of vWF to platelets induced by ristocetin and/or botrocetin (and inhibition thereof) was measured according to the method of MacFarlane et al., Thromb. Diath. Haemorrh., 34, 306-308 (1975) which utilizes washed platelets fixed with formaldehyde. […] Each peptide, used at a final concentration of 500 μmol/l with a ^125 I-vWF concentration of 2 μg/ml, is identified by the same numeral used in the top part of the figure.
(§2) Further experiments were performed with a constant ^125 I-vWF concentration of 2 μg/ml and varying peptide concentration, as indicated on the FIG. 2 abscissa. […] One hundred percent binding was that measured in the presence of Hepes buffer instead of peptide.
(§3) Binding inhibition experiments were conducted analogous to those in Example 6 using an I^125 -vWF concentration of 2 μg/ml.

GPIb-IX = GPIb-IX (Homo sapiens, UniProt P04275); experiment: biochemical
Sequence of GPIb-IX (P04275 764-2813 limits assumed): as above
Protocol: as §1, §2, §3

Row | Substance | IC50 (vWF-GPIb interaction [1]) [µM] | also measured
1 | PGLLTPTPKLEKLSL | ≤ 500 | –
2 | PPDLPKDTTILHLSE | ≤ 500 | –
3 | PPDLPKDTT | > 500 | –
4 | KQGVDVKAMTSNVAS | ≤ 500 | –
5 | DKRNLTALPPDLPKDTT | ≤ 500 | –
6 | EEDTEGDKVRATRTV | ≤ 500 | –
7 | NLTALPPDLPKDTTI | ≤ 500 | –
8 | KRKRKRKRKR [(KR)5] | – | IC50 (vWF-GPIb interaction [2]): 13 µM; IC50 (vWF-GPIb interaction [3]): 1.7 µM
9 | GDTDLYDYYPEEDTE [peptide 25] | ≤ 500 | IC50 (GPIb-IX (Homo sapiens)): 420 µM; IC50 (GPIb-IX): 530 µM
10 | KRKRKRKRKRKRKR [(KR)7] | – | IC50 (vWF-GPIb interaction [2]): 9 µM
11 | EEDTE [EEDTE] | > 500 | –
